# In patent publication US4322412A, “Anthracycline glycosides, their preparation, use and compositions thereof” (priority 1979, dated 1982):
# Where a name gives a salt, the structure may show the parent alone. Read-outs that look alike come from different tables or passages of the source.
# Key:
# [1] = test system: HeLa cells; test: Effect on HeLa Cells Cloning Efficiency In Vitro; type: cell-based; details: for IC50: Homo sapiens, HeLa, read-out: ID50 (HeLa cells cloning efficiency); for cytotoxicity relative to parent compounds: in words, vs respective parent compounds (Table 1)
# Method: ^(a) HeLa cells were exposed to the test compounds for 24 hours, then
# plated. The number of colonies was evaluated 5 days later.
# [2] = test system: P-388 ascitic leukemia; test: Antitumor Activity on Ascitic P 388 Leukemia in Mice; type: in vivo; details: for antitumor activity relative to parent compounds: at the maximal tolerated dose; for in vivo toxicity relative to parent compounds: vs parent compounds; for in vivo toxicity: even at a dose of 200 mg/kg; for antitumor activity relative to daunorubicin: vs daunorubicin in the same experiment
# Method: Several of the new compounds of the invention were tested on HeLa cells cloning efficiency in vitro and on P-388 ascitic leukemia in mice, in comparison with daunorubicin and doxorubicin.
# Antitumor Activity on Ascitic P 388 Leukemia in Mice
# ^(a) Mice were treated i.p. on day 1 after tumor cells inoculation.
# ^(b) Median survival time of treated mice/median survival time of
# ^(c) Evaluated on the basis of macroscopic autoptic findings.
# ^(d) Data of two separate experiments.
# [3] = 24 hours exposure, then plated, colonies evaluated 5 days later
structure (smiles),measurement,setting,value
"COc1cccc2c1C(=O)c1c(O)c3c(c(O)c1C2=O)C[C@@](O)(C(C)=O)C[C@@H]3O[C@H]1C[C@H](N)[C@H](O)[C@H](C)O1 [Daunorubicin . HCl, daunorubicin, reference compound]",IC50,[1]; 24 h,0.0072 µg/mL
same,Toxic Deaths (macroscopic autoptic findings),"[2]; 2.9 mg/kg i.p. day 1, two separate experiments, first value",0/10
same,Toxic Deaths (macroscopic autoptic findings),"[2]; 2.9 mg/kg i.p. day 1, two separate experiments, second value",0/8
same,Toxic Deaths (macroscopic autoptic findings),"[2]; 4.4 mg/kg i.p. day 1, two separate experiments, first value",3/10
same,Toxic Deaths (macroscopic autoptic findings),"[2]; 4.4 mg/kg i.p. day 1, two separate experiments, second value",0/6
same,Toxic Deaths (macroscopic autoptic findings),"[2]; 6.6 mg/kg i.p. day 1, two separate experiments, first value",8/10
same,Toxic Deaths (macroscopic autoptic findings),"[2]; 6.6 mg/kg i.p. day 1, two separate experiments, second value",0/6
"COc1cccc2c1C(=O)c1c(O)c3c(c(O)c1C2=O)C[C@@](O)(C(=O)CO)C[C@@H]3O[C@H]1C[C@H](N)[C@H](O)[C@H](C)O1 [Doxorubicin . HCl (adriamycin), doxorubicin, reference compound]",IC50,[1]; 24 h,0.0095 µg/mL
same,T/C (median survival time of treated mice/control mice × 100),[2]; 4.4 mg/kg i.p. day 1,219%
same,Toxic Deaths (macroscopic autoptic findings),[2]; 4.4 mg/kg i.p. day 1,0/8
same,T/C (median survival time of treated mice/control mice × 100),[2]; 6.6 mg/kg i.p. day 1,223%
same,Toxic Deaths (macroscopic autoptic findings),[2]; 6.6 mg/kg i.p. day 1,0/8
same,T/C (median survival time of treated mice/control mice × 100),[2]; 10 mg/kg i.p. day 1,180%
same,Toxic Deaths (macroscopic autoptic findings),[2]; 10 mg/kg i.p. day 1,4/8
"COc1cccc2c1C(=O)c1c(cc3c(c1O)[C@@H](O[C@H]1C[C@H](N)[C@H](OC)[C@H](C)O1)C[C@](O)(C(C)=O)C3)C2=O [II, 4'-O-methyl-11-deoxy-daunorubicin]",IC50,[1]; [3],0.066 µg/mL
same,cytotoxicity relative to parent compounds,[1],less cytotoxic than their respective parent compounds
same,T/C (median survival time of treated mice/control mice × 100),[2]; 25 mg/kg i.p. day 1,180%
same,Toxic Deaths (macroscopic autoptic findings),[2]; 25 mg/kg i.p. day 1,0/9
same,T/C (median survival time of treated mice/control mice × 100),[2]; 50 mg/kg i.p. day 1,225%
same,Toxic Deaths (macroscopic autoptic findings),[2]; 50 mg/kg i.p. day 1,1/9
same,antitumor activity relative to parent compounds,[2]; in words,comparable to that of the parent compounds
same,in vivo toxicity relative to parent compounds,[2]; in words,less toxic in vivo
"COc1cccc2c1C(=O)c1c(cc3c(c1O)[C@@H](O[C@H]1C[C@H](N)[C@H](OC)[C@H](C)O1)C[C@](O)(C(=O)CO)C3)C2=O [III, 4'-O-methyl-11-deoxy-doxorubicin]",IC50,[1]; [3],0.022 µg/mL
same,cytotoxicity relative to parent compounds,[1],less cytotoxic than their respective parent compounds
same,T/C (median survival time of treated mice/control mice × 100),[2]; 6.6 mg/kg i.p. day 1,195%
same,Toxic Deaths (macroscopic autoptic findings),[2]; 6.6 mg/kg i.p. day 1,0/8
same,T/C (median survival time of treated mice/control mice × 100),[2]; 10 mg/kg i.p. day 1,209%
same,Toxic Deaths (macroscopic autoptic findings),[2]; 10 mg/kg i.p. day 1,0/8
same,T/C (median survival time of treated mice/control mice × 100),[2]; 15 mg/kg i.p. day 1,238%
same,Toxic Deaths (macroscopic autoptic findings),[2]; 15 mg/kg i.p. day 1,0/7
same,T/C (median survival time of treated mice/control mice × 100),[2]; 22.5 mg/kg i.p. day 1,214%
same,Toxic Deaths (macroscopic autoptic findings),[2]; 22.5 mg/kg i.p. day 1,0/10
same,range of active and non-toxic doses,[2]; in words,wide range of active and non-toxic doses
same,antitumor activity relative to parent compounds,[2]; in words,comparable to that of the parent compounds
same,in vivo toxicity relative to parent compounds,[2]; in words,less toxic in vivo
"COc1cccc2c1C(=O)c1c(cc3c(c1OC)[C@@H](O[C@H]1C[C@H](N)[C@H](OC)[C@H](C)O1)C[C@](O)(C(C)=O)C3)C2=O [IV, 4',6-di-O-methyl-11-deoxy-daunorubicin]",IC50,[1]; [3],1 µg/mL
"COc1cccc2c1C(=O)c1c(O)c3c(c(OC)c1C2=O)C[C@@](O)(C(C)=O)C[C@@H]3O[C@H]1C[C@H](N)[C@H](O)[C@H](C)O1 [VI, 11-O-methyl-daunorubicin]",IC50,[1]; [3],0.4 µg/mL
same,cytotoxicity relative to parent compounds,[1],markedly less cytotoxic than are their parent compounds
same,T/C (median survival time of treated mice/control mice × 100),[2]; 100 mg/kg i.p. day 1,111%
same,Toxic Deaths (macroscopic autoptic findings),[2]; 100 mg/kg i.p. day 1,0/4
same,T/C (median survival time of treated mice/control mice × 100),[2]; 200 mg/kg i.p. day 1,122%
same,Toxic Deaths (macroscopic autoptic findings),[2]; 200 mg/kg i.p. day 1,0/3
same,in vivo toxicity,[2]; in words,not toxic
same,antitumor activity relative to daunorubicin,[2]; in words,comparable to that of daunorubicin
"COc1cccc2c1C(=O)c1c(O)c3c(c(OC)c1C2=O)C[C@@](O)(C(C)=O)C[C@@H]3O[C@H]1C[C@H](N)[C@H](OC)[C@H](C)O1 [VIII, 4',11-di-O-methyl-daunorubicin]",IC50,[1]; [3],0.5 µg/mL
same,cytotoxicity relative to parent compounds,[1],markedly less cytotoxic than are their parent compounds
same,T/C (median survival time of treated mice/control mice × 100),[2]; 100 mg/kg i.p. day 1,111%
same,Toxic Deaths (macroscopic autoptic findings),[2]; 100 mg/kg i.p. day 1,0/6
same,T/C (median survival time of treated mice/control mice × 100),[2]; 200 mg/kg i.p. day 1,122%
same,Toxic Deaths (macroscopic autoptic findings),[2]; 200 mg/kg i.p. day 1,0/6
same,in vivo toxicity,[2]; in words,not toxic
same,antitumor activity relative to daunorubicin,[2]; in words,comparable to that of daunorubicin
